pIC50: −log10 of the molar value.
System: hPMBC
Assay: Chymotrypsin-like ProteasomeGlo assay in hPBMC
Type: cell-based
Conditions: Homo sapiens; read-out: Pglo hPBMC
Summary of the method: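 B cells isolated from human PBMC (buffy coats, density gradient, magnetic isolation). Cells treated with compound for 105 min at 37 °C, with staurosporine and DMSO included. Chymotrypsin-like proteasome activity read by luminescence with Suc-LLVY-Glo substrate to derive IC50.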

In the case of `Cc1ccc2cc1CNC(=O)C(c1cnn(C)c1)NC(=O)[C@@H](NC(=O)CN1CCCC1)CC(=O)N1CCCC(CCO2)C1` (stereo partly drawn) [Compound 358, N-((12S)-5^4-methyl-9-(1-methyl-1H-pyrazol-4-yl)-8,11,14-trioxo-4-oxa-7,10-diaza-1(3,1)-piperidina-5(1,3)-benzenacyclotetradecaphane-12-yl)-2-(pyrrolidin-1-yl)acetamide], the pIC50 was > 7.00.

In the case of `Cc1ccc2cc1CNC(=O)[C@H](CCc1ccccc1)NC(=O)[C@@H](NC(=O)Cc1ccccc1F)CC(=O)N1CCCC(CCO2)C1` (stereo partly drawn) [Compound 333, 2-(2-fluorophenyl)-N-((9S,12S)-5^4-methyl-8,11,14-trioxo-9-phenethyl-4-oxa-7,10-diaza-1(3,1)-piperidina-5(1,3)-benzenacyclotetradecaphane-12-yl)acetamide], the pIC50 was > 7.00.

For `Cc1ccc2cc1CNC(=O)C(CCc1cnccn1)NC(=O)[C@@H](NC(=O)Cc1ccc(N)cc1F)CC(=O)N1CCCC(CCO2)C1` (stereo partly drawn) [Compound 372, 2-(4-amino-2-fluorophenyl)-N-((9S,12S)-5^4-methyl-8,11,14-trioxo-9-(2-(pyrazin-2-yl)ethyl)-4-oxa-7,10-diaza-1(3,1)-piperidina-5(1,3)-benzenacyclotetradecaphane-12-yl) acetamide], the pIC50 was > 7.00.

In the case of `Cc1ccc2cc1CNC(=O)[C@H](CCc1ccccc1)NC(=O)[C@@H](NC(=O)OCc1ccccc1)CCCCC(=O)NCCCCO2` [Compound 347, benzyl ((13S,16S)-1^4-methyl-8,14,17-trioxo-16-phenethyl-2-oxa-7,15,18-triaza-1(1,3)-benzenacyclononadecaphane-13-yl)carbamate], the pIC50 was > 7.00.

In the case of `Cc1ccc2cc1CNC(=O)C(CCc1ccc(C3(C)COC3)cc1)NC(=O)[C@@H](NC(=O)OCc1ccccc1)CC(=O)N1CCCC(CCO2)C1` (stereo partly drawn) [Compound 510, benzyl ((12S)-5^4-methyl-9-(4-(3-methyloxetan-3-yl)phenethyl)-8,11,14-trioxo-4-oxa-7,10-diaza-1(3,1)-piperidina-5(1,3)-benzenacyclotetradecaphane-12-yl)carbamate], the pIC50 was > 7.00.

With `COC(C(=O)N[C@H]1CC(=O)N2CCCC(CCOc3ccc(C)c(c3)CNC(=O)[C@H](CCc3ccccc3)NC1=O)C2)c1ccc(N)cc1` (stereo partly drawn) [Compound 326, 2-(4-aminophenyl)-2-methoxy-N-((9S,12S)-5^4-methyl-8,11,14-trioxo-9-phenethyl-4-oxa-7,10-diaza-1(3,1)-piperidina-5(1,3)-benzenacyclotetradecaphane-12-yl)acetamide] the pIC50 was > 7.00.

Work on `Cc1ccc2cc1CNC(=O)[C@H](CCc1ccccc1)NC(=O)[C@@H](NC(=O)c1ccc3cc(N)ccc3c1)CC(=O)N1CCCC(CCO2)C1` (stereo partly drawn) [Compound 339, 6-amino-N-((9S,12S)-5^4-methyl-8,11,14-trioxo-9-phenethyl-4-oxa-7,10-diaza-1(3,1)-piperidina-5(1,3)-benzenacyclotetradecaphane-12-yl)-2-naphthamide] yielded a pIC50 of 6.30 to 7.00.

In the case of `Cc1ccc2cc1CNC(=O)[C@H](CCc1ccccc1)NC(=O)[C@@H](NC(=O)OCc1ccccc1)CCC(=O)N1CCC(CCO2)C1` (stereo partly drawn) [Compound 350, benzyl ((9S,12S)-5^4-methyl-8,11,15-trioxo-9-phenethyl-4-oxa-7,10-diaza-1(3,1)-pyrrolidina-5(1,3)-benzenacyclopentadecaphane-12-yl)carbamate], the pIC50 was > 7.00.

In the case of `CCOC(=O)N[C@H]1CC(=O)N2CCCC(CCOc3ccc(C)c(c3)CNC(=O)C(c3cnn(C)c3)NC1=O)C2` (stereo partly drawn) [Compound 363, Ethyl ((12S)-5^4-methyl-9-(1-methyl-1H-pyrazol-4-yl)-8,11,14-trioxo-4-oxa-7,10-diaza-1(3,1)-piperidina-5(1,3)-benzenacyclotetradecaphane-12-yl)carbamate], the pIC50 was > 7.00.

For `Cc1ccc2cc1CNC(=O)[C@H](CCc1ccccc1)NC(=O)[C@@H](NC(=O)OCc1ccccc1)CC(=O)N1CC(CCO2)CC2CCCCC21` (stereo partly drawn) [Compound 314, benzyl ((9S,12S)-5^4-methyl-8,11,14-trioxo-9-phenethyl-11,12,13,14,14a,15,16,17,18,18a-decahydro-4-oxa-7,10-diaza-1(3,1)-quinolina-5(1,3)-benzenacyclotetradecaphane-12-yl)carbamate], the pIC50 was > 7.00.

Source: US20240415819A1, “MACROCYCLIC COMPOUNDS AS PROTEASOME SUBUNIT BETA TYPE-5 INHIBITORS” (Lead Discovery Center GmbH, priority 2021, published 2024)
